Assay results: US20230278981A1, “DICHLOROPHENOL HSD17B13 INHIBITORS AND USES THEREOF” (INIPHARM, INC., priority 2020, published 2023)

Molecular target: HSD17B13 (Homo sapiens (Human), UniProt Q7Z5P4)
Test: LC/MS estrone detection assay: conversion of estradiol to estrone by HSD17B13
Assay type: biochemical
Conditions: 4 μM estradiol, 6 mM NAD+, 30 nM HSD17B13 enzyme (E. coli expressed His-tagged), 2 hours at 26.5° C.
In short: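 His-tagged E. coli-expressed HSD17B13 (30 nM) with 4 μM estradiol and 6 mM NAD+ in 1 M potassium phosphate pH 7.4, 0.5% DMSO, 2 h at 26.5° C. Estrone and estradiol quantified by LC-MS/MS after MeCN quench with D4-estrone internal standard; activity as % of uninhibited enzyme, IC50 by four-parameter fit, duplicates.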

HSD17B13, sequence (Q7Z5P4 20-300): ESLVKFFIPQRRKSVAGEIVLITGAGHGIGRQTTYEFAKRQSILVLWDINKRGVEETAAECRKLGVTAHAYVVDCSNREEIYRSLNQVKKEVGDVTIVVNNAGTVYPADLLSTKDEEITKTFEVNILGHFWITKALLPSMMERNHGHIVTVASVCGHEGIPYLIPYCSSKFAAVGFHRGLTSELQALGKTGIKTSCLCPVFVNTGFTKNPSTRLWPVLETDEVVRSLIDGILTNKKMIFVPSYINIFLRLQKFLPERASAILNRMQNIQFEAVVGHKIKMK

IC50 [nM]	Structure (SMILES)
100 to 500	Cc1nc2c(F)ccc(NC(=O)c3cc(Cl)c(O)c(Cl)c3)c2c(=O)n1[C@@H](C)c1ccccc1OC(F)(F)F [Example 173, (S)-3,5-dichloro-N-(8-fluoro-2-methyl-4-oxo-3-(1-(2-(trifluoromethoxy)phenyl)ethyl)-3,4-dihydroquinazolin-5-yl)-4-hydroxybenzamide]
100 to 500	Cc1nc2c(F)ccc(NC(=O)c3cc(Cl)c(O)c(Cl)c3)c2c(=O)n1[C@H](C)c1ccccc1OC(F)(F)F [Example 174, (R)-3,5-dichloro-N-(8-fluoro-2-methyl-4-oxo-3-(1-(2-(trifluoromethoxy)phenyl)ethyl)-3,4-dihydroquinazolin-5-yl)-4-hydroxybenzamide]
≤ 100	[2H]C([2H])([2H])c1nc2c(C)ccc(NC(=O)c3cc(Cl)c(O)c(Cl)n3)c2c(=O)n1Cc1ccccc1OC(F)(F)F [Example 176, 4,6-dichloro-5-hydroxy-N-(8-methyl-2-(methyl-d3)-4-oxo-3-(2-(trifluoromethoxy)benzyl)-3,4-dihydroquinazolin-5-yl)picolinamide]
100 to 500	Cc1ccc(NC(=O)c2cc(Cl)c(O)c(Cl)n2)c2c(=O)n(Cc3ncccc3C(F)(F)F)c(C(F)F)nc12 [Example 177, 4,6-dichloro-N-(2-(difluoromethyl)-8-methyl-4-oxo-3-((3-(trifluoromethyl)pyridin-2-yl)methyl)-3,4-dihydroquinazolin-5-yl)-5-hydroxypicolinamide]
500 to 1000	Cc1ccc(NC(=O)c2cc(Cl)c(O)c(Cl)n2)c2c(=O)n(Cc3ncccc3Cl)c(C)nc12 [Example 178, 4,6-dichloro-N-(3-((3-chloropyridin-2-yl)methyl)-2,8-dimethyl-4-oxo-3,4-dihydroquinazolin-5-yl)-5-hydroxypicolinamide]
≤ 100	[2H]C([2H])([2H])c1nc2c(C)ccc(NC(=O)c3cc(Cl)c(O)c(Cl)c3)c2c(=O)n1Cc1ccccc1C(F)(F)F [Example 179, 3,5-dichloro-4-hydroxy-N-(8-methyl-2-(methyl-d3)-4-oxo-3-(2-(trifluoromethyl)benzyl)-3,4-dihydroquinazolin-5-yl)benzamide]
100 to 500	[2H]C([2H])([2H])c1nc2c(C)ccc(NC(=O)c3cc(Cl)c(O)c(Cl)n3)c2c(=O)n1Cc1ccccc1C(F)(F)F [Example 180, 4,6-dichloro-5-hydroxy-N-(8-methyl-2-(methyl-d3)-4-oxo-3-(2-(trifluoromethyl)benzyl)-3,4-dihydroquinazolin-5-yl)picolinamide]
100 to 500	Cc1ccc(NC(=O)c2cc(Cl)c(O)c(Cl)n2)c2c(=O)n(Cc3ccccc3C(F)(F)F)c(C(F)F)nc12 [Example 181, 4,6-dichloro-N-(2-(difluoromethyl)-8-methyl-4-oxo-3-(2-(trifluoromethyl)benzyl)-3,4-dihydroquinazolin-5-yl)-5-hydroxypicolinamide]
≤ 100	O=C(Nc1scnc1C(=O)NCc1ccccc1C(F)(F)F)c1cc(Cl)c(O)c(Cl)c1 [Example 182, 5-(3,5-dichloro-4-hydroxybenzamido)-N-(2-(trifluoromethyl)benzyl)thiazole-4-carboxamide]
100 to 500	Cc1ccc(NC(=O)c2cc(Cl)c(O)c(Cl)c2)c2c(=O)n(Cc3ncccc3F)c(C)nc12 [Example 183, 3,5-dichloro-N-(3-((3-fluoropyridin-2-yl)methyl)-2,8-dimethyl-4-oxo-3,4-dihydroquinazolin-5-yl)-4-hydroxybenzamide]
100 to 500	[2H]C([2H])([2H])c1nc2c(F)ccc(NC(=O)c3cc(Cl)c(O)c(Cl)n3)c2c(=O)n1Cc1ccccc1C(F)(F)F [Example 184, 4,6-dichloro-N-(8-fluoro-2-(methyl-d3)-4-oxo-3-(2-(trifluoromethyl)benzyl)-3,4-dihydroquinazolin-5-yl)-5-hydroxypicolinamide]
≤ 100	Cc1ccc(NC(=O)c2cc(Cl)c(O)c(Cl)c2)c2c(=O)n(Cc3ccccc3C(F)(F)F)c(CF)nc12 [Example 186, 3,5-dichloro-N-(2-(fluoromethyl)-8-methyl-4-oxo-3-(2-(trifluoromethyl)benzyl)-3,4-dihydroquinazolin-5-yl)-4-hydroxybenzamide]
100 to 500	Cn1nc(CNC(=O)c2ncsc2NC(=O)c2cc(Cl)c(O)c(Cl)n2)c2ccccc21 [Example 187, 5-(4,6-dichloro-5-hydroxypicolinamido)-N-((1-methyl-1H-indazol-3-yl)methyl)thiazole-4-carboxamide]
≤ 100	Cn1nc(CNC(=O)c2ncsc2NC(=O)c2cc(Cl)c(O)c(Cl)c2)c2ccccc21 [Example 188, 5-(3,5-dichloro-4-hydroxybenzamido)-N-((1-methyl-1H-indazol-3-yl)methyl)thiazole-4-carboxamide]
100 to 500	O=C(Nc1scnc1C(=O)NCc1cccc(F)c1)c1cc(Cl)c(O)c(Cl)n1 [Example 189, 5-(4,6-dichloro-5-hydroxypicolinamido)-N-(3-fluorobenzyl)thiazole-4-carboxamide]
≤ 100	Cc1nc2c(F)ccc(NC(=O)c3cc(Cl)c(O)c(Cl)c3)c2c(=O)n1Cc1nn(C)c2ccccc12 [Example 190, 3,5-dichloro-N-(8-fluoro-2-methyl-3-((1-methyl-1H-indazol-3-yl)methyl)-4-oxo-3,4-dihydroquinazolin-5-yl)-4-hydroxybenzamide]
≤ 100	O=C(Nc1scnc1C(=O)NCc1ccccc1OC(F)(F)F)c1cc(Cl)c(O)c(Cl)n1 [Example 191, 5-(4,6-dichloro-5-hydroxypicolinamido)-N-(2-(trifluoromethoxy)benzyl) thiazole-4-carboxamide]
100 to 500	O=C(Nc1scnc1C(=O)NCc1ccccc1C(F)(F)F)c1cc(Cl)c(O)c(Cl)n1 [Example 192, 5-(4,6-dichloro-5-hydroxypicolinamido)-N-(2-(trifluoromethyl)benzyl)thiazole-4-carboxamide]
500 to 1000	O=C(Nc1scnc1C(=O)NCc1cccc(C(F)(F)F)n1)c1cc(Cl)c(O)c(Cl)n1 [Example 193, 5-(4,6-dichloro-5-hydroxypicolinamido)-N-((6-(trifluoromethyl)pyridin-2-yl)methyl)thiazole-4-carboxamide]
100 to 500	Cc1nc2c(F)ccc(NC(=O)c3cc(Cl)c(O)c(Cl)n3)c2c(=O)n1Cc1nn(C)c2ccccc12 [Example 194, 4,6-dichloro-N-(8-fluoro-2-methyl-3-((1-methyl-1H-indazol-3-yl)methyl)-4-oxo-3,4-dihydroquinazolin-5-yl)-5-hydroxypicolinamide]
1000 to 10000	Cc1ccc(NC(=O)c2cc(Cl)c(O)c(Cl)n2)c2c(=O)n(Cc3ncccc3F)c(C)nc12 [Example 195, 4,6-dichloro-N-(3-((3-fluoropyridin-2-yl)methyl)-2,8-dimethyl-4-oxo-3,4-dihydroquinazolin-5-yl)-5-hydroxypicolinamide]
100 to 500	O=C(Nc1scnc1C(=O)NCc1ncccc1C(F)(F)F)c1cc(Cl)c(O)c(Cl)n1 [Example 196, 5-(4,6-dichloro-5-hydroxypicolinamido)-N-((3-(trifluoromethyl)pyridin-2-yl)methyl)thiazole-4-carboxamide]
500 to 1000	Cc1nc2c(F)ccc(NC(=O)c3cc(Cl)c(O)c(Cl)c3)c2c(=O)n1Cc1cccc(C(F)(F)F)n1 [Example 197, 3,5-dichloro-N-(8-fluoro-2-methyl-4-oxo-3-((6-(trifluoromethyl)pyridin-2-yl)methyl)-3,4-dihydroquinazolin-5-yl)-4-hydroxybenzamide]
500 to 1000	O=C(Nc1scnc1C(=O)NCc1cccc(C(F)(F)F)n1)c1cc(Cl)c(O)c(Cl)c1 [Example 198, 5-(3,5-dichloro-4-hydroxybenzamido)-N-((6-(trifluoromethyl)pyridin-2-yl)methyl)thiazole-4-carboxamide]
500 to 1000	Cc1ccc(NC(=O)c2cc(Cl)c(O)c(Cl)c2)c2c(=O)n(Cc3cccc(C(F)(F)F)n3)c(C)nc12 [Example 199, 3,5-dichloro-N-(2,8-dimethyl-4-oxo-3-((6-(trifluoromethyl)pyridin-2-yl)methyl)-3,4-dihydroquinazolin-5-yl)-4-hydroxybenzamide]
≤ 100	[2H]C([2H])(c1ccccc1C(F)(F)F)n1c(C)nc2c(C)ccc(NC(=O)c3cc(Cl)c(O)c(Cl)c3)c2c1=O [Example 200, 3,5-dichloro-N-(2,8-dimethyl-4-oxo-3-((2-(trifluoromethyl)phenyl)methyl-d2)-3,4-dihydroquinazolin-5-yl)-4-hydroxybenzamide]
100 to 500	[2H]C([2H])(c1ccccc1C(F)(F)F)n1c(C)nc2c(C)ccc(NC(=O)c3cc(Cl)c(O)c(Cl)n3)c2c1=O [Example 201, 4,6-dichloro-N-(2,8-dimethyl-4-oxo-3-{[2-(trifluoromethyl)phenyl](^2H2)methyl}-3,4-dihydroquinazolin-5-yl)-5-hydroxypyridine-2-carboxamide]
100 to 500	Cc1ccc(NC(=O)c2cc(Cl)c(O)c(Cl)n2)c2c(=O)n([C@@H]3CC[C@H]3c3ccccc3)c(C)nc12 [Example 202, 4,6-dichloro-N-(2,8-dimethyl-4-oxo-3-((1R,2S)-2-phenylcyclobutyl)-3,4-dihydroquinazolin-5-yl)-5-hydroxypicolinamide]
≤ 100	Cc1ccc(NC(=O)c2cc(Cl)c(O)c(Cl)c2)c2c(=O)n([C@@H]3CC[C@H]3c3ccccc3)c(C)nc12 [Example 203, 3,5-dichloro-N-(2,8-dimethyl-4-oxo-3-((1R,2S)-2-phenylcyclobutyl)-3,4-dihydroquinazolin-5-yl)-4-hydroxybenzamide]
≤ 100	O=C(Nc1ccc(F)c2ncn(Cc3ccccc3C(F)(F)F)c(=O)c12)c1cc(Cl)c(O)c(Cl)c1 [Example 204, 3,5-dichloro-N-(8-fluoro-4-oxo-3-(2-(trifluoromethyl)benzyl)-3,4-dihydroquinazolin-5-yl)-4-hydroxybenzamide]
